The results in this text go back to patent publication US9388405B2, “Method for identifying a subpopulation of mammalian cells with distinctive ribosome translation profiles” (priority 2009, dated 2016).

Common to all, as to assay type: cell-based, human
For assay [1], the system named is HEK293 CMV-fLUC #3, hTRdm-fLUC #13 and mTRdm-fLUC #45 subclones. Nature of the assay: Translation elongation inhibitor single-Toxin and two-Toxin (100 nM TPA) dose response. Particulars: for reporter protein level versus untreated control: 25 uM inhibitor + 100 nM TPA, HEK293 mTRdm-fLUC #45 subclone; for low dose sufficient to reduce reporter protein levels below untreated control cells: HEK293 CMV-fLUC #3 and mTRdm-fLUC #45 subclones. Here is the method:
At sufficiently large doses, these inhibitors immediately stop protein translation, and the resulting protein turnover reduces reporter protein levels below untreated cell levels (<100% control).
For the HEK293 CMV-fLUC #3 (top panel) and mTRdm-fLUC #45 (bottom panel) subclones, anisomycin and emetine antagonized the TPA response at the lowest tested dose (10 nM) and reduced reporter protein levels 50-300% compared to the TPA single-Toxin assay. This contrasted with puromycin, which required a 250 nM concentration (25×) to initially reduce protein synthesis below the TPA Single-Toxin assay level in all three cell lines. […] For example, the CMV-fLUC #3 subclone required a 2.5 uM puromycin dose to correlate with the other inhibitors, which contrasted with hTRdm-fLUC #13 and mTRdm-fLUC #45 subclones which needed a 25 uM puromycin concentration (a 10× increase).
In this example (FIG. 33), single-Toxin and two-Toxin dose responses were used to define translational responses associated with translation inhibitors. Inhibitors of protein biosynthesis generally act by interfering with translational initiation (assembly of the components or structures required for translation) or elongation (enzymatic process of peptide synthesis and chain movement within the ribosome). A variety of translational inhibitors exist that affect each of these stages. Due to the fact that cap-dependent and cap-independent translation display distinct translational initiation mechanisms, this example focused on translational inhibitors associated with peptide elongation. Since the majority of these enzymatic processes are common to cap-dependent and cap-independent translation, any significant differences in chain elongation reflect differences in peptide synthesis.
A dose response single-Toxin assay was used to examine translation regulation in HEK293 cells (FIG. 33A). […] For example, translation inhibition stops reporter protein production, and protein turnover reduces reporter activity below the basal level. In this example, a 250 nM concentration of each inhibitor was sufficient to reduce protein synthesis below control cell levels in cap-dependent and cap-independent assays (FIG. 33A). Furthermore, any dose above 2.5 uM produced only minimal additional reductions in reporter protein activity supporting the theory that translation in these assays had ceased.
In a second effort, a two-Toxin dose response assay was performed by varying the concentration of the elongation inhibitors in combination with the 100 nM TPA activator (FIG. 33B). This combinatorial assay was designed to examine protein synthesis in stimulated cells preferentially translating the TR transcript. As in the single-Toxin assays, cap-dependent translation was arrested by 2.5 uM puromycin (top panel) which contrasted with the cap-independent assays where a 10× increase in puromycin concentration (25 uM) was needed to prevent new protein synthesis. However even at this highest tested dose, immediate translation inhibition was not observed in any cell line (FIG. 33C).

Assay [2] has as its system MCF7 mTRdm-fLuc subclones #8, #27, and #45. Nature of the assay: PKC activator dose response, cap-independent TR translation (fLuc). Particulars: single-Toxin. Here is the method:
Following 6 hr culture with a TPA single-Toxin assay, cells were lysed and fLuc protein activity measured using a standard microplate reader assay. The plate reader values were averaged and expressed as the ratio of treated to untreated samples (Fold Induction).
As with FIG. 27B, dashed lines represent translational response levels achieved by the 100 nM TPA assay in each cell line. […] A further difference between the cap-dependent and cap-independent assays was the observation that increased Bryostatin 2 concentrations (5× the maximal TPA dose) never produced fLUC activity equivalent to the 100 nM TPA assay. Thus, the Toxin Assay procedure can detect a statistically significant difference in cap-dependent and cap-independent translation in compounds that activate PKC activity.
In the cap-independent assays, a similar dose response trend was observed over a 1 nM to 250 nM range with a translational peak at a 100 nM dose. However, the magnitude of the Bryostatin increases were generally 30% of 100 nM TPA response.

The subject of assay [3] is MCF7 CMV-fLuc subclones #44 and #48. Nature of the assay: PKC activator dose response, cap-dependent translation (fLuc). The conditions noted are these: single-Toxin. Here is the method:
Following 6 hr exposure to the Single-Toxin TPA assay, cells were lysed and fLuc protein activity measured using a standard microplate reader assay. The raw values were averaged and expressed as the ratio of treated to untreated samples (Fold Induction).
Dashed lines represent translational response levels produced by a 100 nM TPA Single-Toxin assay. The Bryostatin 1 concentrations (top panel) encompassed the TPA concentrations used in FIG. 27A. […] The Bryostatin 2 dose response curve (bottom panel) employed higher drug concentrations (the maximal tested dose was 5× the largest TPA and Bryostatin 1 amounts). At the highest tested dose (2.5 uM), Bryostatin 2 produced fLuc activity consistent with the level observed with 100 nM TPA.
In addition to measuring cap-dependent and cap-independent translational effects, Class-specific translational activity and toxin-defined actions, the previously described materials and methods allow for a variety of applications designed to detect and characterize agents and processes that regulate ribosome activity. In this example, comparative dose response assays were used to detect cap-dependent and cap-independent translational regulation in MCF7 cells. The basis for this application was the observation that distinct translational responses are produced by compounds at different doses. When an assortment of compounds act on a common molecular target, they can be grouped into a genus of related drugs. By comparing individual species of a compound genus over a defined dose range, differences in translational regulation can be defined. Furthermore, these translational differences can often be linked to biological differences.
In this example (FIG. 27), the three PKC activators produced similar dose response trends in cap-dependent assays. […] However, macrolide lactones produced translational increases that were generally 60-70% of the TPA translational response (FIG. 27B). In fact, a 25 fold increase in Bryostatin 2 concentration (2.5 uM) was needed to produce a translational magnitude similar to the 100 nM TPA assay (FIG. 27B).

Assay [4] concerns MCF7 CMV-fLuc subclone #65. Nature of the assay: Topoisomerase 1 inhibitor single-Toxin and two-Toxin (100 nM TPA) dose response, cap-dependent. Particulars: 10 nM to 10 uM; for dose at peak of fLuc protein expression: 6 hr; for dose at peak of fLuc protein expression / effect on TPA-specific translational response: cap-dependent; for effect on TPA-specific translational response: two-Toxin with constant 100 nM TPA. On the procedure:
FIG. 28A illustrates a dose response assay of the MCF7 CMV-fLuc subclone #65 treated with varying doses (10 nM to 10 uM range) of the following Topoisomerase 1 inhibitors: camptothecin, topotecan, irinotecan, and rubitecan. Following a 6 hr incubation in a single-Toxin assay, cells were lysed and fLuc protein activity measured using a standard microplate reader assay. The plate reader values were averaged and expressed as the ratio of treated to untreated samples (Fold Induction). The dashed line represents the level of translational response in untreated cell samples.
FIG. 28B illustrates the use of a Combinatorial Assay to examine the effects of Topoisomerase 1 inhibitors on cap-dependent translation. A series of dose response assays were performed on the MCF7 CMV-fLuc subclone #65 using varying doses of the Topoisomerase 1 inhibitors (10 nM to 10 uM range) in a Two-Toxin assay with a constant 100 nM TPA dose. The plate reader values were averaged and expressed as the ratio of treated to untreated samples (Fold Induction). The dashed line represents the level of translational response in untreated samples.
FIG. 28A illustrates a cap-dependent dose response assay of MCF7 cells treated with varying dosages (10 nM to 10 uM range) of the following TopoI inhibitors: camptothecin, topotecan, irinotecan, and rubitecan. […] While the altered irinotecan response might have been predicted based on its metabolic requirements, the lack of topotecan action on cap-dependent translation in the single-Toxin assays was unexpected.
Since similar doses inhibited translation in the single-Toxin assays (FIG. 28A), this effect might have represented a direct effect on translation.

The test system of assay [5] is MCF7 mTRdm-fLuc subclone #27. Nature of the assay: Topoisomerase 1 inhibitor single-Toxin and two-Toxin (100 nM TPA) dose response, cap-independent. Particulars: 10 nM to 10 uM; for effect on cap-independent translation: single-Toxin; for effect on TPA activity: two-Toxin with 100 nM TPA. Here is the method:
FIG. 28C illustrates the use of single-Toxin Assays to measure the effects of Topoisomerase 1 inhibitors on cap-independent translation in MCF7 cells. Triplicate samples of the MCF7 mTRdm-fLuc subclone #27 were treated with varying concentrations (10 nM to 10 uM range) of the Topoisomerase 1 inhibitors; camptothecin, rubitecan, irinotecan and topotecan. The plate reader values were averaged and expressed as the ratio of treated to untreated samples (Fold Induction). The dashed line represents the level of translational response in untreated controls.
FIG. 28D illustrates the use of a two-Toxin Combinatorial Assay on the MCF7 mTRdm-fLuc subclone #27 treated with 100 nM TPA plus varying doses (10 nM to 10 uM range) of the Topoisomerase 1 inhibitors. The plate reader values were averaged and expressed as the ratio of treated to untreated samples (Fold Induction). The dashed line represents the level of translational response in untreated samples. All four inhibitors acted synergistically with TPA to increase protein activity in the 10 nM two-Toxin assay.
FIG. 28D illustrates the use of a two-Toxin dose response assay using varying dosages of the TopoI inhibitors in combination with the 100 nM TPA translational activator. All four inhibitors acted synergistically with TPA at low doses to increase protein translation. At concentrations higher than 100 nM, camptothecin, rubitecan, and topotecan antagonized the TPA response and reduced the fLUC expression.

For the compound `COc1ccc(C[C@H](N)C(=O)N[C@H]2[C@@H](O)[C@H](n3cnc4c(N(C)C)ncnc43)O[C@@H]2CO)cc1` [puromycin], the “reporter protein level versus untreated control” value in assay [1] is recorded as “little or no reduction below untreated control cell levels”. Further, the “concentration required to reduce reporter protein levels to levels comparable to the other three inhibitors” value in assay [1] (single-Toxin, cap-dependent and cap-independent) is 2.5 µM. Also, the “dose required to correlate with the other inhibitors (translation arrested)” value in assay [1] (two-Toxin with 100 nM TPA, CMV-fLUC #3 subclone, cap-dependent) turned out to be 2.5 µM. Further, in assay [1] (two-Toxin with 100 nM TPA, all three cell lines), the “concentration required to initially reduce protein synthesis below the TPA Single-Toxin assay level” value is 250 nM. The “concentration needed to correlate with the other inhibitors (prevent new protein synthesis)” value in assay [1] (two-Toxin with 100 nM TPA, hTRdm-fLUC #13 and mTRdm-fLUC #45, cap-independent) is 25 µM.

For `CCC/C=C/C=C/C(=O)O[C@H]1/C(=C/C(=O)OC)C[C@H]2C[C@H]([C@@H](C)O)OC(=O)C[C@H](O)C[C@@H]3C[C@H](OC(C)=O)C(C)(C)[C@](O)(C[C@@H]4C/C(=C/C(=O)OC)C[C@H](/C=C/C(C)(C)[C@]1(O)O2)O4)O3` [Bryostatin 1], in assay [2], the “magnitude of translational response versus 100 nM TPA tests” value is reported as “never reached the fLuc activity produced in 100 nM TPA tests”. In assay [2] (6 hr), the “dose giving peak fLuc protein activity” value was 100 nM. Moreover, the “magnitude of reporter activity versus 100 nM TPA assay” value in assay [3] (500 pM to 500 nM) is “never reached the fLuc activity level produced by the 100 nM TPA assay”. In addition, the “dose giving maximal reporter level (translational peak)” value in assay [3] (6 hr) is 100 nM.

On to `CC[C@@]1(O)C(=O)OCc2c1cc1n(c2=O)Cc2cc3c([N+](=O)[O-])cccc3nc2-1` [rubitecan], for which the “dose at peak of fLuc protein expression” value in assay [4] (single-Toxin) was about 1 µM. Besides, the “effect on TPA-specific translational response” value in assay [4] is on record as “acted synergistically with TPA to increase fLUC protein activity up to a 1 uM dose”. In addition, in assay [5], the “effect on cap-independent translation” value was “exhibited reduced fLUC activity at higher doses (5 uM and 10 uM)”; the “effect on TPA activity” value is “antagonized the TPA activity and exhibited reduced fLUC expression”.

Consider `CC[C@@]1(O)C(=O)OCc2c1cc1n(c2=O)Cc2cc3ccccc3nc2-1` [camptothecin], for which the “dose at peak of fLuc protein expression” value in assay [4] (single-Toxin) is about 1 µM. Also, the “effect on TPA-specific translational response” value in assay [4] is on record as “acted synergistically with TPA to increase fLUC protein activity up to a 1 uM dose”. Moreover, in assay [5], the “effect on cap-independent translation” value is “exhibited reduced fLUC activity at higher doses (5 uM and 10 uM)”; the “effect on TPA activity” value was “antagonized the TPA activity and exhibited reduced fLUC expression”.

Turning to `CCc1c2c(nc3ccc(OC(=O)N4CCC(N5CCCCC5)CC4)cc13)-c1cc3c(c(=O)n1C2)COC(=O)[C@]3(O)CC` [irinotecan], in assay [4] (single-Toxin), the “effect on cap-dependent translation” value was “neither topotecan or irinotecan significantly altered cap-dependent translation”. The “effect on TPA-specific translational response” value in assay [4] is given as “did not produce any significant change in the TPA-specific translational response”. Further, in assay [5], the “effect on cap-independent translation” value is “constant amount of fLUC activity at all tested concentrations”; the “effect on TPA activity” value is “displayed synergistic action with TPA and enhanced fLUC activity at all tested doses”.

For the compound `CC[C@H]1CN2CCc3cc(OC)c(OC)cc3[C@@H]2C[C@@H]1C[C@H]1NCCc2cc(OC)c(OC)cc21` [emetine], in assay [1], the “reporter protein level versus untreated control” value was “little or no reduction below untreated control cell levels”. In assay [1] (single-Toxin), the “low dose sufficient to reduce reporter protein levels below untreated control cells” value is recorded as 100 nM.

Consider `C[C@@H]1C[C@@H]([C@H](O)CC2CC(=O)NC(=O)C2)C(=O)[C@@H](C)C1` [cycloheximide], for which the “reporter protein level versus untreated control” value in assay [1] is reported as “little or no reduction below untreated control cell levels”.

Consider `COc1ccc(C[C@H]2NC[C@H](O)[C@H]2OC(C)=O)cc1` [anisomycin], for which the “reduction of reporter protein levels compared to the TPA single-Toxin assay” value in assay [1] (10 nM inhibitor + 100 nM TPA, CMV-fLUC #3 and mTRdm-fLUC #45) was 50-300%. Also, the “low dose sufficient to reduce reporter protein levels below untreated control cells” value in assay [1] (single-Toxin) was about 25 nM.
